Target: T1, Recombinant human renin (Homo sapiens, UniProt P00797)
T1 construct: isolate the active form (residues 67-406); made in house; host or cells: FreeStyle 293-F cells, transient expression of pcDNA3.1(+)/hREN
T1 sequence (P00797 67-406): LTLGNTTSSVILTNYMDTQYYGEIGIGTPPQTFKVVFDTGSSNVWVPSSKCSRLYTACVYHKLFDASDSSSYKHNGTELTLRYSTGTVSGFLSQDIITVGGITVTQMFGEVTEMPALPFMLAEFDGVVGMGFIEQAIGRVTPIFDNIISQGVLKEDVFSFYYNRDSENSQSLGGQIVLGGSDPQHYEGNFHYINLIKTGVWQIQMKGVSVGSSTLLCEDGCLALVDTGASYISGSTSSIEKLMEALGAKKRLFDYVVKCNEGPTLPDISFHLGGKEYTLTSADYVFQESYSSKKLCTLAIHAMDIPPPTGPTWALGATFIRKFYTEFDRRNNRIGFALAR
Assay: In vitro enzymatic activity assay of renin inhibitors (fluorescence, QXL520/HiLyteFluo488 peptide substrate)
Type: biochemical
Conditions: recombinant human renin 3 nM, 1 μM substrate, pre-incubated 10 minutes at 37° C., incubation one hour, pH 7.4, 5% DMSO; read-out: IC50 of Exemplified Compounds Against Renin

IC50 [µM] | Structure (SMILES)
< 0.1 | O=C(c1[nH]c(=O)n(-c2cccc(N3CCOCC3)c2)c1-c1ccccc1)N1CCNC[C@H]1Cc1ccccc1 [Example 110, (R)-4-(2-Benzylpiperazine-1-carbonyl)-1-(3-morpholinophenyl)-5-phenyl-1H-imidazol-2(3H)-one]
0.5 to 1 | CC(=O)N1CCCC(n2c(-c3ccccc3)c(C(=O)N3CCNC[C@H]3Cc3ccccc3)[nH]c2=O)C1 (stereo partly drawn) [Example 115, 1-(1-Acetylpiperidin-3-yl)-4-((R)-2-benzylpiperazine-1-carbonyl)-5-phenyl-1H-imidazol-2(3H)-one]
< 0.1 | O=C(c1[nH]c(=O)n(-c2ccccc2[N+](=O)[O-])c1-c1ccccc1)N1CCNC[C@H]1Cc1ccccc1 [Example 117, (R)-4-(2-Benzylpiperazine-1-carbonyl)-1-(2-nitrophenyl)-5-phenyl-1H-imidazol-2(3H)-one]
0.1 to 0.5 | CCS(=O)(=O)Nc1ccccc1-n1c(-c2ccccc2)c(C(=O)N2CCNC[C@H]2Cc2ccccc2)[nH]c1=O [Example 127, (R)—N-(2-(4-(2-Benzylpiperazine-1-carbonyl)-2-oxo-5-phenyl-2,3-dihydro-1H-imidazol-1-yl)phenyl)ethanesulfonamide]
> 1 | CC(C)S(=O)(=O)NCCCn1c(C(=O)N2CCNCC2)c(-c2ccccc2)n(-c2cccc(N3CCOCC3)c2)c1=O [Example 196, N-(3-(3-(3-Morpholinophenyl)-2-oxo-4-phenyl-5-(piperazine-1-carbonyl)-2,3-dihydro-1H-imidazol-1-yl)propyl)propane-2-sulfonamide]
< 0.1 | Cc1ccccc1-n1c(-c2ccccc2)c(C(=O)N2CCNC[C@H]2Cc2ccccc2)[nH]c1=O [Example 116, (R)-4-(2-Benzylpiperazine-1-carbonyl)-5-phenyl-1-o-tolyl-1H-imidazol-2(3H)-one]
0.1 to 0.5 | CC(c1ccccc1)n1c(C(=O)N2CCNCC2)c(-c2ccccc2)n(C2CCCCC2)c1=O (stereo not shown) [Example 69, 1-Cyclohexyl-5-phenyl-3-(1-phenylethyl)-4-(piperazine-1-carbonyl)-1H-imidazol-2(3H)-one]
< 0.1 | COc1cccc(-n2c(-c3ccccc3)c(C(=O)N3CCNC[C@H]3Cc3ccccc3)[nH]c2=O)c1OC [Example 112, (R)-4-(2-Benzylpiperazine-1-carbonyl)-1-(2,3-dimethoxyphenyl)-5-phenyl-1H-imidazol-2(3H)-one]
0.5 to 1 | O=C(c1c(-c2ccccc2)n(-c2cccc(N3CCOCC3)c2)c(=O)n1CCCNS(=O)(=O)c1ccc(Cl)cc1)N1CCNCC1 [Example 202, 4-Chloro-N-(3-(3-(3-morpholinophenyl)-2-oxo-4-phenyl-5-(piperazine-1-carbonyl)-2,3-dihydro-1H-imidazol-1-yl)propyl)benzenesulfonamide]
< 0.1 | COCCN1CCOc2ccc(-n3c(-c4ccccc4)c(C(=O)N4CCNC[C@H]4Cc4ccccc4)[nH]c3=O)cc21 [Example 137, (R)-4-(2-Benzylpiperazine-1-carbonyl)-1-(4-(2-methoxyethyl)-3,4-dihydro-2H-benzo[b][1,4]oxazin-6-yl)-5-phenyl-1H-imidazol-2(3H)-one]
0.5 to 1 | Cc1ccccc1-n1c(-c2ccccc2)c(C(=O)N2CCNCC2)n(CCNC(=O)c2cccc(Cl)c2)c1=O [Example 232, 3-Chloro-N-(2-(2-oxo-4-phenyl-5-(piperazine-1-carbonyl)-3-o-tolyl-2,3-dihydro-1H-imidazol-1-yl)ethyl)benzamide]
< 0.1 | O=C(c1c(-c2ccccc2)n(-c2cccc(N3CCOCC3)c2)c(=O)n1Cc1cccc(OCc2ccccc2)c1)N1CCNCC1 [Example 76, 1-(3-(Benzyloxy)benzyl)-3-(3-morpholinophenyl)-4-phenyl-5-(piperazine-1-carbonyl)-1H-imidazol-2(3H)-one]
0.5 to 1 | Cc1ccccc1-n1c(-c2ccccc2)c(C(=O)N2CCNCC2)n(CCNC(=O)c2ccc(Cl)cc2)c1=O [Example 233, 4-Chloro-N-(2-(2-oxo-4-phenyl-5-(piperazine-1-carbonyl)-3-o-tolyl-2,3-dihydro-1H-imidazol-1-yl)ethyl)benzamide]
< 0.1 | Cn1c(C(=O)N2CCNC[C@H]2Cc2ccccc2)c(-c2ccccc2)n(C2CCCCC2)c1=O [Example 65, (R)-4-(2-Benzylpiperazine-1-carbonyl)-1-cyclohexyl-3-methyl-5-phenyl-1H-imidazol-2(3H)-one]
> 1 | Cc1ccccc1-n1c(-c2ccccc2)c(C(=O)N2CCNCC2)n(CCNC(=O)OCc2ccccc2)c1=O [Example 251, Benzyl 2-(2-oxo-4-phenyl-5-(piperazine-1-carbonyl)-3-o-tolyl-2,3-dihydro-1H-imidazol-1-yl)ethylcarbamate]
0.1 to 0.5 | Cc1ccccc1-n1c(-c2ccccc2)c(C(=O)N2CCNCC2)n(CCCNC(=O)Nc2ccccc2Cl)c1=O [Example 224, 1-(2-Chlorophenyl)-3-(3-(2-oxo-4-phenyl-5-(piperazine-1-carbonyl)-3-o-tolyl-2,3-dihydro-1H-imidazol-1-yl)propyl)urea]

IC50 [µM] | Structure (SMILES)
> 1 | N#Cc1ccccc1Cn1c(C(=O)N2CCNCC2)c(-c2ccccc2)n(-c2ccccc2)c1=O [Example 85, 2-((2-Oxo-3,4-diphenyl-5-(piperazine-1-carbonyl)-2,3-dihydro-1H-imidazol-1-yl)methyl)benzonitrile]
> 1 | O=C(c1[nH]c(=O)n(-c2ccccc2)c1-c1ccccc1)N1CCNCC1CO (stereo not shown) [Example 20, 4-(2-(Hydroxymethyl)piperazine-1-carbonyl)-1,5-diphenyl-1H-imidazol-2(3H)-one]
> 1 | CC(C)CN(C)C(=O)c1cccc(Cn2c(C(=O)N3CCNCC3)c(-c3ccccc3)n(-c3cccc(N4CCOCC4)c3)c2=O)c1 [Example 78, N-isobutyl-N-methyl-3-((3-(3-morpholinophenyl)-2-oxo-4-phenyl-5-(piperazine-1-carbonyl)-2,3-dihydro-1H-imidazol-1-yl)methyl)benzamide]
0.1 to 0.5 | O=C(c1c(-c2ccccc2)n(-c2cccc(N3CCOCC3)c2)c(=O)n1CCCNS(=O)(=O)c1ccccc1)N1CCNCC1 [Example 175, N-(3-(3-(3-Morpholinophenyl)-2-oxo-4-phenyl-5-(piperazine-1-carbonyl)-2,3-dihydro-1H-imidazol-1-yl)propyl)benzenesulfonamide]
> 1 | O=C(c1[nH]c(=O)n(C2CCCCC2)c1-c1ccccc1)N1CCCNCC1 [Example 89, 1-Cyclohexyl-4-(1,4-diazepane-1-carbonyl)-5-phenyl-1H-imidazol-2(3H)-one]
> 1 | CC(=O)N1CCCC(n2c(-c3ccccc3)c(C(=O)N3CCNCC3)[nH]c2=O)C1 (stereo not shown) [Example 94, 1-(1-Acetylpiperidin-3-yl)-5-phenyl-4-(piperazine-1-carbonyl)-1H-imidazol-2(3H)-one]
< 0.1 | CCCCN1CCCc2ccc(-n3c(-c4ccccc4)c(C(=O)N4CCNC[C@H]4Cc4ccccc4)[nH]c3=O)cc21 [Example 131]
> 1 | CC(C)CC(=O)NCCCn1c(C(=O)N2CCNCC2)c(-c2ccccc2)n(C2CCCC[C@@H]2O)c1=O (stereo partly drawn) [Example 172, N-(3-(3-((2S)-2-Hydroxycyclohexyl)-2-oxo-4-phenyl-5-(piperazine-1-carbonyl)-2,3-dihydro-1H-imidazol-1-yl)propyl)-3-methylbutanamide]
0.1 to 0.5 | Cc1ccccc1-n1c(-c2ccccc2)c(C(=O)N2CCNCC2)n(Cc2cccc(OCCOc3ccccc3)c2)c1=O [Example 73, 1-(3-(2-Phenoxyethoxy)benzyl)-4-phenyl-5-(piperazine-1-carbonyl)-3-o-tolyl-1H-imidazol-2(3H)-one]
0.1 to 0.5 | COc1cccc(Cn2c(C(=O)N3CCNCC3)c(-c3ccccc3)n(-c3ccccc3)c2=O)c1 [Example 83, 1-(3-methoxybenzyl)-3,4-diphenyl-5-(piperazine-1-carbonyl)-1H-imidazol-2(3H)-one]
< 0.1 | C=CCS(=O)(=O)Nc1ccccc1-n1c(-c2ccccc2)c(C(=O)N2CCNC[C@H]2Cc2ccccc2)[nH]c1=O [Example 129, (R)—N-(2-(4-(2-Benzylpiperazine-1-carbonyl)-2-oxo-5-phenyl-2,3-dihydro-1H-imidazol-1-yl)phenyl)prop-2-ene-1-sulfonamide]
< 0.1 | CS(=O)(=O)c1cccc(-n2c(-c3ccccc3)c(C(=O)N3CCNC[C@H]3Cc3ccccc3)[nH]c2=O)c1 [Example 114, (R)-4-(2-Benzylpiperazine-1-carbonyl)-1-(3-(methylsulfonyl)phenyl)-5-phenyl-1H-imidazol-2(3H)-one]
> 1 | Cc1ccccc1-n1c(-c2ccccc2)c(C(=O)N2CCNCC2)n(CCNC(=O)C2CCCCC2)c1=O [Example 237, N-(2-(2-oxo-4-phenyl-5-(piperazine-1-carbonyl)-3-o-tolyl-2,3-dihydro-1H-imidazol-1-yl)ethyl)cyclohexanecarboxamide]
> 1 | O=C(c1c(-c2ccccc2)n(-c2cccc(N3CCOCC3)c2)c(=O)n1CCNS(=O)(=O)c1ccccc1)N1CCNCC1 [Example 185, N-(2-(3-(3-Morpholinophenyl)-2-oxo-4-phenyl-5-(piperazine-1-carbonyl)-2,3-dihydro-1H-imidazol-1-yl)ethyl)benzenesulfonamide]
0.5 to 1 | N#Cc1cccc(Cn2c(C(=O)N3CCNCC3)c(-c3ccccc3)n(-c3ccccc3)c2=O)c1 [Example 79, 3-((2-oxo-3,4-diphenyl-5-(piperazine-1-carbonyl)-2,3-dihydro-1H-imidazol-1-yl)methyl)benzonitrile]

Reference: patent US8148367B2 (Takeda Pharmaceutical Company Limited, priority 2008, dated 2012)
